Source: patent publication US11896609B2, “Pharmaceutical composition for treating inflammatory diseases comprising germanium telluride nanosheets coated with polyvinylpyrrolidone” (Industry-Academic Cooperation Foundation, priority 2021, dated 2024)

Key:
[1] = tested on: DSS-induced colitis model; experiment: DSS-induced inflammatory bowel disease (colitis) model; format: in vivo, C57BL/6 mice
Protocol: 7- to 8-week-old male C57BL/6 mice (Orient Bio Inc.; Seongnam, Korea) were used for the experiments. Colitis was induced by allowing an acute inflammatory bowel disease model to ingest drinking water to which 2% dextran sodium sulfate (DSS; MP Biochemical, Irvine, Ca, USA) was added for 7 days. A normal control group was allowed to ingest the same amount of water for the same time (FIG. 19).
The experimental groups were classified into the following four groups (Table 1): a normal control group (Group 1, n=8), a group in which colitis is induced by DSS (Group 2, n=8), a group in which sulfasalazine (SAZ), which is a common therapeutic agent, was administered to a DSS-induced colitis model (Group 3, n=8, SAZ=200 mg/kg/day), and a group in which GeTe-PVP NSs were administered to a DSS-induced colitis model (Group 4, n=8, GeTe-PVP NS=5 mg/kg/day).
Body weight changes and the disease activity index (DAI) of mice were confirmed every day for 7 days. Each score of weight loss index (0 to 4; FIG. 20A), rectal bleeding observed with the naked eye in the stool or anus (0 to 3; FIG. 20C), and stool consistency (0 to 3; FIG. 20B) is summed to evaluate the disease activity index on a 10-point scale (FIG. 20D). [Stevceva L, Pavli P, Husband A, Ramsay A, Doe WF. Dextran sulphate sodium-induced colitis is ameliorated in interleukin 4 deficient mice. Genes Immun 2001; 2:309-316.] […]

[2] = IVIS fluorescence imaging biodistribution after oral administration; format: in vivo, mice; details: 5 mg/kg oral, IVIS at 1, 6 and 24 hours
Protocol: After GeTe-PVP NSs (5 mg/kg, 100 μl) or an ICG solution (5 mg/kg, 200 μl) were orally administered, the mice were subjected to laparotomy at 1, 6, and 24 hours, and the biodistribution of GeTe-PVP NSs and the ICG solution was photographed with an in vivo imaging system (IVIS). Furthermore, the stomach, intestine, liver, lungs, pancreas, heart, and kidneys were removed at each time to confirm their biodistribution by fluorescence imaging with IVIS and quantify the amounts of GeTe-PVP NSs and ICG accumulated in each organ by FL intensity.

Row | time after administration until which a large amount remained in the intestine (FL intensity) [2] [h] | SMILES | disease activity index (DAI) compared to DSS group (Group 2) ([1]; DSS colitis mice, SAZ 200 mg/kg/day, GeTe-PVP NS 5 mg/kg/day) | inflammatory findings (H&E, PAS staining) ([1]; proximal and distal regions of excised intestine)
1 | – | O=C(O)c1cc(/N=N/c2ccc(S(=O)(=O)Nc3ccccn3)cc2)ccc1O [sulfasalazine] | lower DAI compared to Group 2 | many inflammatory findings were not found
2 | ≤ 1 | CC1(C)C(/C=C/C=C/C=C/C=C2\N(CCCCS(=O)(=O)O)c3ccc4ccccc4c3C2(C)C)=[N+](CCCCS(=O)(=O)[O-])c2ccc3ccccc3c21 [ICG solution, Indocyanine green] | – | –
